These are literature values, as cited in patent US6900203B2, “Optically active fluorinated vasoconstrictors, methods for making them, and anesthetic formulations comprising them” (Polium Technologies, Inc., priority 2002, dated 2005).

Read-outs that look alike come from different tables or passages of the source.

In data set [1] the test system is α2/β adrenergic receptors.
In data set [2] the test system is α1/β adrenergic receptors.
The next data set has as its target α1-receptors. Particulars: read-out: Receptor affinity α1.
A further data set concerns the target β1 (Homo sapiens, UniProt P08588). Particulars: read-out: Receptor affinity β1.
A further data set deals with β2 (Homo sapiens, UniProt P07550). The settings on record: read-out: Receptor affinity β2.
A further data set concerns the target α-receptors. The settings on record: order of magnitude.

Sequence of β2 (P07550 whole entry): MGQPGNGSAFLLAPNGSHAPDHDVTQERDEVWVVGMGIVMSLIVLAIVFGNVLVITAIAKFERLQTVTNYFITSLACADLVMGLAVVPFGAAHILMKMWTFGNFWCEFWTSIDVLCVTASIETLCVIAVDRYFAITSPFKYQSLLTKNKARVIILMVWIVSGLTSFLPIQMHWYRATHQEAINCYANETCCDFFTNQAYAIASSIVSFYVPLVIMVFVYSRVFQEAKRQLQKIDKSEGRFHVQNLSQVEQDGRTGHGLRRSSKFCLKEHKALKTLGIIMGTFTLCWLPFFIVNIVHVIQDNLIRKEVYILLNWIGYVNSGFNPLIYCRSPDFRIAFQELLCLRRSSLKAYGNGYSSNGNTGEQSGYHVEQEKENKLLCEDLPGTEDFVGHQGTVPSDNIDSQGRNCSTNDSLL
Sequence of β1 (P08588 whole entry): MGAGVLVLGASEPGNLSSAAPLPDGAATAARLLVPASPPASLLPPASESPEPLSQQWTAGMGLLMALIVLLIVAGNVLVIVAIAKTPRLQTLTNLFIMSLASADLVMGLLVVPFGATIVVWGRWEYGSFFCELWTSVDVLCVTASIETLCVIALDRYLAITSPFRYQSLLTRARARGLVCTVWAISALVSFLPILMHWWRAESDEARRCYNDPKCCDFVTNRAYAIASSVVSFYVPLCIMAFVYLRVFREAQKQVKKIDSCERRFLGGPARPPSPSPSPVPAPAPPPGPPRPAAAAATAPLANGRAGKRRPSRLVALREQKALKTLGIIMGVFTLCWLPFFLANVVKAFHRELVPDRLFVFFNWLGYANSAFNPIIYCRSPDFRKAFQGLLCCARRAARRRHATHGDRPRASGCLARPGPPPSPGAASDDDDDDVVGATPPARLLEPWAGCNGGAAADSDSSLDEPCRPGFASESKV

As to `CNCC(O)c1cc(O)ccc1F` (stereo not shown) [6F-phenylephrine], the α2/β selectivity in data set [1] is 780 fold. For the same compound, the α1/β selectivity in data set [2] was 86-140 fold.
`CNC[C@H](O)c1ccc(O)c(O)c1F` [(R)-2F-epinephrine]: the Ki at α1-receptors is approximately 25 µM; on β1 it was 0.56 ± 0.03 µM; at α2-receptors (read-out: Receptor affinity α2), 0.067 ± 0.003 µM; at β2 it was 0.11 ± 0.03 µM.
For the compound `CNC[C@H](O)c1cc(O)c(O)cc1F` [(R)-6F-epinephrine, 2-methylamino-1R-[(3,4-dihydroxy-6-fluoro)-phenyl]ethanol], the Ki was 2.5 ± 0.1 µM on α1-receptors, approximately 100 µM on β1, 0.013 ± 0.002 µM at α2-receptors (read-out: Receptor affinity α2) and 38 ± 7 µM at β2.
In the case of `CNC[C@H](O)c1ccc(O)c(O)c1` [(R)-epinephrine], the Ki on α2-receptors (order of magnitude, read-out: binding constant with respect to α2-receptors) was approximately 0.01 µM; on α2-receptors (read-out: Receptor affinity α2), 0.013 ± 0.002 µM.
`CNC[C@H](O)c1cccc(O)c1` [(R)-phenylephrine, 2-methylamino-1R-(3-hydroxyphenyl)ethanol]: the “binding constants with α-receptors” value on α-receptors is given as “on the order of several”. Moreover, the α2/β selectivity in data set [1] was 33 fold. Further, the α1/β selectivity in data set [2] is listed as 2-5 fold.
Consider `CNC[C@@H](O)c1ccc(O)c(O)c1F` [(S)-2F-epinephrine], for which the Ki on α1-receptors is approximately 40 µM; on β1 it was approximately 150 µM; on α2-receptors (read-out: Receptor affinity α2), 0.053 ± 0.001 µM; at β2, approximately 25 µM.
As for `CNC[C@@H](O)c1cc(O)c(O)cc1F` [(S)-6F-epinephrine], the Ki is approximately 70 µM at α1-receptors, approximately 400 µM at β1, 0.078 ± 0.001 µM on α2-receptors (read-out: Receptor affinity α2) and approximately 90 µM at β2.
In the case of `CNC[C@@H](O)c1ccc(O)c(O)c1` [(S)-epinephrine], the Ki at α1-receptors was approximately 20 µM; at α2-receptors (read-out: Receptor affinity α2), 0.045 ± 0.003 µM.
